# According to patent US11491135B2 (priority 2019, dated 2022):
# Where two headings read alike, the source gives them in different places.
# Legend:
# [1] = tested on: Clostridium perfringens ATCC13124; format: cell-based; details: 0.7% BHIA plates, anaerobic 37° C., 48 h
# [2] = tested on: Clostridium perfringens; format: cell-based; details: 4, 8, 16 and 32 μg/ml, 30° C., 5 days, crystal violet absorbance at 570 nm
# [3] = tested on: Clostridium perfringens ATCC13124; format: in vivo, Arbor Acre broiler chickens; details: 25 mg/kg orally every 12 h, 5 days
compound,measurement,setting,value
COc1c(O)cc2occ(-c3ccc(O)cc3)c(=O)c2c1O [tectorigenin],gliding motility of Clostridium perfringens on BHIA,[1]; 8 μg/ml tectorigenin,significantly inhibit
same,gliding motility of Clostridium perfringens on BHIA,[1]; 32 μg/ml tectorigenin,significantly inhibit
same,biofilm formation of Clostridium perfringens,[2],effectively inhibit
same,"daily weight gain of broiler chickens, treatment group vs infected group",[3],significantly higher than that of the infected group
same,histopathological injury of small intestine (HE staining),[3],significantly alleviated
same,"degree of pathological changes of the necrotic enteritis in the intestinal tract (intestinal lesion scoring, 0-6)",[3]; chickens sacrificed at 21-day-old,significantly reduced
